Results taken from patent US5795899A, “Soluble salts of 4-amino-2-(4,4-dimethylimidazolidin-2-on-1-yl) pyrimidine-5-carboxylic acid N-methyl-N-(3-trifluoromethylphenyl)-amide, a process for the preparation thereof, the use thereof as pharmaceuticals and starting materials” (Hoechst Aktiengesellschaft, priority 1992, dated 1998).

Legend:
[1] = tested on: LDL receptor mRNA in human hepatocytoma cell line HepG2; assay: LDL receptor mRNA expression on HepG2 cells (Northern blot); assay type: cell-based; conditions: FIG. 2
Procedure: The HepG2 cells were previously incubated in MEM standard medium which contained 10% fetal calf serum with and without hydrochloride of the compound I (10^-6 M) for 16 hours.
Lipoprotein-deficient serum (LPDS) was in this case prepared by ultracentrifugation by a standard process (Goldstein, J. L., Basu, S. K and Brown, M. S., Methods Enzymol. 98, 241 (1983)). The MRNA in the […] was prepared in analogy to the method described above.
The mRNA was prepared by the method described by Chomczynski, P. and Sacchi, N. in Anal. Biochem. 162, 156 (1987). […] The filters were subsequently exposed on Cronex 4 films (Dupont) in the presence of an intensifying screen at -70° C. overnight or for up to 14 days, and the hybridization signals were quantified from the intensity of blackening of the film using a commercially available laser densitometer. Subsequently, the quotient was determined from the intensity of the LDL receptor band and of the actin band as internal standard to correct for variations in yield. […]

HMG-CoA reductase = target: T1, HMG-CoA reductase (Rattus norvegicus, UniProt P51639); assay: HMG-CoA reductase determination in vitro on partially purified HMG-CoA reductase from rat liver; assay type: biochemical; conditions: 10^-5 M; variation 10%
T1 construct: partially purified HMG-COA reductase from rat liver; from tissue; host or cells: rat liver (partially purified enzyme)
T1 sequence (P51639 1-887): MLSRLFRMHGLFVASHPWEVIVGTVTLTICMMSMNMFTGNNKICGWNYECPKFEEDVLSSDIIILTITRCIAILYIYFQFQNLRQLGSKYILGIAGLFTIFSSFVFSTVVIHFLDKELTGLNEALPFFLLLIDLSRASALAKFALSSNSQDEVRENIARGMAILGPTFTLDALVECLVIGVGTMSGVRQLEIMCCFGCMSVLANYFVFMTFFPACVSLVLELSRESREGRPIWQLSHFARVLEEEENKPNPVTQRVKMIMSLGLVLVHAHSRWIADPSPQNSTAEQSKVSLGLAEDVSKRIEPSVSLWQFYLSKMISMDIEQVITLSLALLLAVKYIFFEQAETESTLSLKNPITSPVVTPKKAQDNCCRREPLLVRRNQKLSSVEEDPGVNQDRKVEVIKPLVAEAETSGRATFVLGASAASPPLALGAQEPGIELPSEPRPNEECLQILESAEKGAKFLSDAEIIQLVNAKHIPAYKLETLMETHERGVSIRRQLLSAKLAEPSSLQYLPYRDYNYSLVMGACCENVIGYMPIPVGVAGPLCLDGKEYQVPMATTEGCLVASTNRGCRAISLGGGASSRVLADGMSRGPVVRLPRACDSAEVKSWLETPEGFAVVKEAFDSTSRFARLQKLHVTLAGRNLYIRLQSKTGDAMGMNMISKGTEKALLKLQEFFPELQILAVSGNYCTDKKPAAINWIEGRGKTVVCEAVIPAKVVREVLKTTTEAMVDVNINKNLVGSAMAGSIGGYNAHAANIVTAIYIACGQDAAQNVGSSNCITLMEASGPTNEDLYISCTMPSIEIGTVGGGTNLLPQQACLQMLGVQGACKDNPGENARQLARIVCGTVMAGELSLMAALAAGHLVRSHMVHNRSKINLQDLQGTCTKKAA

[2] = tested on: carbohydrate-induced hypertriglyceridemia; assay: Inhibition of carbohydrate-induced hypertriglyceridemia; assay type: in vivo, male Sprague-Dawley rats; conditions: 1 mg/kg/day
Procedure: Groups of in each case 10 male Sprague-Dawley rats (supplied by the breeder Mollegard with a weight of 250-280 g) received on each of 4 consecutive days one administration of the compound dissolved in PEG 400 by gavage. In addition, after the 3rd administration and 8 and 24 hours later they received 2.5 g of fructose/kg, likewise by gavage. Moreover, after the 3rd administration of product, 50% strength fructose solution was offered to them as drinking water ad libitum, and the food was withdrawn. Retroorbital removal of blood, from which the serum was obtained for the triglyceride determination and VLDL preparation in the ultracentrifuge (flotation at d=1.006), took place 3 hours after the last product/fructose administration. The food received by the animals from 1 week before the 1st administration and up to the 3rd administration was a diet with 40% casein in the feed meal.
The animals develop, as a result of this treatment, a hypertriglyceridemia which approximately corresponds to Fredrickson phenotype IV in humans. The serum triglycerides of the normal animals increased from 0.54 to 1.1 mmol/l, and the VLDL triglycerides from 0.67 to 1.81.

[3] = tested on: mouse leukemia cells, L 1210; assay: MTT assay, inhibition of cell proliferation, L1210; assay type: cell-based; conditions: 72 hours incubation
Procedure: The reduced inhibitory effect on cell proliferation was tested on exponentially growing animal (mouse leukemia cells, L 1210) and human (bronchial carcinoma cells, A 549; colon carcinoma cells, HT 29) tumor cells. This entailed the tumor cells being incubated in RPMI standard medium with various concentrations of the test substances for 72 hours. Cell incubations only in fresh medium served as control. Incubations were set up in quadruplet. […] After incubation for a further 7 to 24 hours, the cell supernatant was carefully removed and the formazan dye in the cells was solubilized by adding DMSO and measured quantitatively by photometry at 492 nm. The ratio of the extinction of the substance incubations to the control incubation was quantified. The coefficient of variation in each incubation series was less than 15%. The following Table 6 indicates the IC50 values (IC50 [μg/ml] is the concentration of the test substance per ml which is necessary for 50% inhibition) from these investigations.

SMILES: CN(C(=O)c1cnc(N2CC(C)(C)NC2=O)nc1N)c1cccc(C(F)(F)F)c1.Cl [Compound I as hydrochloride, 4-amino-2-(4,4-dimethyl-2-oxo-1-imidazolidinyl)pyrimidine-5-carboxylic acid N-methyl-N-(3-trifluoromethylphenyl)amide hydrochloride]
- Overinduction of LDL receptor mRNA in lipoprotein-deficient serum compared with whole serum ([1]; 10^-6 M, 16 hours): further by the same factor as was observed on stimulation in whole serum
- Dependence of LDL receptor mRNA stimulation on cholesterol supply level ([1]; whole serum and lipoprotein-deficient serum): does not depend on the cholesterol "supply level"
- Influence on HMG-CoA reductase enzyme activity compared with control incubations (HMG-CoA reductase): does not influence
- Inhibition of the increase in the VLDL triglycerides (in words) [2]: almost one half
- IC50 [3]: 13.4 µg/mL
